Earlier results as cited in patent US20100144679A1, “MEDICATION KITS AND FORMULATIONS FOR PREVENTING, TREATING OR REDUCING SECONDARY FRACTURES AFTER PREVIOUS FRACTURE” (DUKE UNIVERSITY, priority 2007, published 2010).

How the values were obtained:
[1] = patients with reduced creatinine clearances
[2] = system: bone resorption
[3] = system: bone resorption; remark: listed apart in the source

| SMILES | fall rates [1] | concentrations at which bone resorption is inhibited in vitro [2] [nM] | untoward effects on bone formation or mineralization ([3]; at the concentrations and doses that inhibit bone resorption) | doses at which bone resorption is inhibited in vivo ([3]; in vivo) [µg/kg] |
| --- | --- | --- | --- | --- |
| C=C1/C(=C\C=C2/CCC[C@]3(C)[C@@H]([C@H](C)CCCC(C)(C)O)CC[C@@H]23)C[C@@H](O)C[C@@H]1O [calcitriol] | reduces fall rates |  |  |  |
| O=P(O)(O)C(O)(Cn1ccnc1)P(=O)(O)O [zoledronic acid, 1-hydroxy-2-(imidazol-1-yl)ethane-1,1-d-iphosphonic acid] |  | 0.3 to 30 | without exerting any untoward effects on either bone formation or mineralization | 0.3 to 30 |
